Data reported in US20060014712A1, “Controlled delivery of therapeutic compounds” (CeMines, Inc., priority 2004, published 2006).

What was measured:
[1] = tested on: WM 266-4; test: WST-1 test (mitochondrial activity); type: cell-based, human; conditions: conc 10 µM, untreated = 1
Protocol: (§1) Methods. Human melanoma cell lines SK-MEL-28 and WM 2664 and mouse melanoma cell line B16 were obtained from the American Tissue Culture Collection (ATCC). Cells were cultured according to recommendations of ATCC (DMEM, 10% FCS, penicillin+streptomycin) and used in experiments after two passages in the laboratory. Cells were grown in 24 well plates, each treatment in triplicates. Cells were plated 16 hours prior treatments started. Peptides were added to the media, and media was changed every day during 7 day experiment. […] Methods. Human melanoma cell lines SK-MEL-28 and WM 266-4 were obtained from the American Tissue Culture Collection (ATCC) and were cultured according to recommendations of ATCC (DMEM, 10% FCS, penicillin+streptomycin). Human keratinocytes were obtained from Clonetics and cultured according to manufacturers protocol. Cells were used in experiments after two passages in the laboratory. Cells were grown in 24 well plates, each treatment in triplicates. Cells were plated 16 hours prior treatments started. Peptides were added to the media, and media was changed every day during 7 day experiment. […] WST-1 test was performed to measure mitochondrial activity, which can also be used as a measure of cell number.

[2] = tested on: WM 266-4; test: Cell counting after 7 day peptide treatment; type: cell-based, human; conditions: conc 10 µM, start count 10
Protocol: The ability to block interaction of MITF, SOX10 and STAT3 with active transcriptional complex and inhibit proliferation and stimulate apoptosis of melanoma cells were tested on human melanoma cell lines SK-MEL-28 and WM 266-4, and mouse melanoma cell line B16. Methods. Human melanoma cell lines SK-MEL-28 and WM 2664 and mouse melanoma cell line B16 were obtained from the American Tissue Culture Collection (ATCC). Cells were cultured according to recommendations of ATCC (DMEM, 10% FCS, penicillin+streptomycin) and used in experiments after two passages in the laboratory. Cells were grown in 24 well plates, each treatment in triplicates. Cells were plated 16 hours prior treatments started. Peptides were added to the media, and media was changed every day during 7 day experiment. […] Cells were precipitated and resuspended in 100 μl of PBS, and 5 μl were removed for counting Methods. Human melanoma cell lines SK-MEL-28 and WM 266-4 were obtained from the American Tissue Culture Collection (ATCC) and were cultured according to recommendations of ATCC (DMEM, 10% FCS, penicillin+streptomycin). Human keratinocytes were obtained from Clonetics and cultured according to manufacturers protocol. Cells were used in experiments after two passages in the laboratory. Cells were grown in 24 well plates, each treatment in triplicates. Cells were plated 16 hours prior treatments started. Peptides were added to the media, and media was changed every day during 7 day experiment. […] For cell counting, cells were trypsinized (0.25% Trypsin, 2 mM EDTA) in Ca, Mg free PBS. Cells were precipitated and resuspended in 100 μl of PBS, and 5 μl were removed for counting.

[3] = tested on: WM 266-4; test: Apoptosis, Annexin V-Cy3 Apoptosis Kit; type: cell-based, human; conditions: conc 10 µM
Protocol: as §1, with “Apoptosis” for “WST-1 test”, “analyzed using Biovision Annexin V-Cy3 Apoptosis Kit according” for “performed”, “manufacturers protocols.” for “measure mitochondrial activity, which can also be used as a measure of cell number.”

[4] = tested on: SK-MEL-28; test: WST-1 test (mitochondrial activity); type: cell-based, human; conditions: conc 10 µM, untreated = 1
[5] = tested on: SK-MEL-28; test: Cell counting after 7 day peptide treatment; type: cell-based, human; conditions: conc 10 µM, start count 10
Protocol: The ability to block interaction of MITF, SOX10 and STAT3 with active transcriptional complex and inhibit proliferation and stimulate apoptosis of melanoma cells were tested on human melanoma cell lines SK-MEL-28 and WM 266-4, and mouse melanoma cell line B16. Methods. Human melanoma cell lines SK-MEL-28 and WM 2664 and mouse melanoma cell line B16 were obtained from the American Tissue Culture Collection (ATCC). Cells were cultured according to recommendations of ATCC (DMEM, 10% FCS, penicillin+streptomycin) and used in experiments after two passages in the laboratory. Cells were grown in 24 well plates, each treatment in triplicates. Cells were plated 16 hours prior treatments started. Peptides were added to the media, and media was changed every day during 7 day experiment. CPP concentration was 10 μM For cell counting, cells were trypsinized (0.25% Trypsin, 2 mM EDTA) in Ca^+2, Mg^+2 free PBS. Cells were precipitated and resuspended in 100 μl of PBS, and 5 μl were removed for counting Methods. Human melanoma cell lines SK-MEL-28 and WM 266-4 were obtained from the American Tissue Culture Collection (ATCC) and were cultured according to recommendations of ATCC (DMEM, 10% FCS, penicillin+streptomycin). Human keratinocytes were obtained from Clonetics and cultured according to manufacturers protocol. Cells were used in experiments after two passages in the laboratory. Cells were grown in 24 well plates, each treatment in triplicates. Cells were plated 16 hours prior treatments started. Peptides were added to the media, and media was changed every day during 7 day experiment. CPP concentration was 10 μM. For cell counting, cells were trypsinized (0.25% Trypsin, 2 mM EDTA) in Ca, Mg free PBS. Cells were precipitated and resuspended in 100 μl of PBS, and 5 μl were removed for counting.

[6] = tested on: B16; test: Apoptosis, Annexin V-Cy3 Apoptosis Kit; type: cell-based, mouse; conditions: CPP mimicking peptides, conc 10 µM
Protocol: Methods. Human melanoma cell lines SK-MEL-28 and WM 2664 and mouse melanoma cell line B16 were obtained from the American Tissue Culture Collection (ATCC). Cells were cultured according to recommendations of ATCC (DMEM, 10% FCS, penicillin+streptomycin) and used in experiments after two passages in the laboratory. Cells were grown in 24 well plates, each treatment in triplicates. Cells were plated 16 hours prior treatments started. Peptides were added to the media, and media was changed every day during 7 day experiment. CPP concentration was 10 μM Apoptosis was analyzed using Biovision Annexin V-Cy3 Apoptosis Kit according to manufacturers protocols.

Row | Sequence | WST-1 7 d ([1]; modified peptides) | Cell Count 7 d ([2]; modified peptides) | Apoptosis 7 d/% ([3]; modified peptides) [%] | WST-1 7 d ([4]; modified peptides) | Cell Count 7 d ([5]; modified (inhibitor/MMP2, MMP9 site) peptides) | WST-1 7 d ([1]; CPP mimicking peptides) | Apoptosis 7 d/% [6] [%] | Cell Count 7 d ([2]; CPP mimicking peptides) | Apoptosis 7 d/% ([3]; CPP mimicking peptides) [%] | WST-1 7 d ([4]; CPP mimicking peptides) | Cell Count 7 d ([5]; CPP mimicking peptides)
1 | TTGGSSPQGLEAKRPKKRKVRRRFNINDRIKELGTLIPKSNDPDMRWN [MITF-int1M] | 0.8 | 25 | 21 | 0.81 | 42 | – | – | – | – | – | –
2 | RPKKRKVRRRVKRPMNAFMVWAQAARRKLADQY [SOX10-int1] | – | – | – | – | – | 0.6 | 12 | 25 | 31 | 0.51 | 28
3 | RPKKRKVRRRFNINDRIKELGTLIPKSNDPDMRWN [MITF-int1] | – | – | – | – | – | 0.8 | 16 | 30 | 21 | 0.7 | 39
